In PubChem BioAssay AID1963423 (Molecular Pharmacology Branch, DTP, NCI, 2024):

Test system: 439559-082-T-J2-PDC complex spheroid growth
Experiment: Anticancer human tumor 439559-082-T-J2-PDC patient-derived colon adenocarcinoma cell line growth inhibition [Asc]
Settings: for IC50: curve of first compound; for viability, T/C: stronger effect = lower value
Outline: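 Complex spheroids combining tumor cells with HUVEC endothelial cells and human MSCs, at 37 degrees C, 5% CO2; agents tested alone or combined, half-log dilutions from at or near clinical Cmax, or 10 microM if Cmax unknown.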

[1] = second compound 0.1 µM, first compound 0.0316 µM
[2] = second compound 0.1 µM, first compound 0.1 µM
[3] = second compound 0.1 µM, first compound 0.316 µM
[4] = second compound 0.1 µM, first compound 1 µM
[5] = second compound 0.1 µM, first compound 3.16 µM
[6] = second compound 0.1 µM, first compound 10 µM
[7] = second compound 0.316 µM, first compound 0.0316 µM
[8] = second compound 0.316 µM, first compound 0.1 µM
[9] = second compound 0.316 µM, first compound 0.316 µM
[10] = second compound 0.316 µM, first compound 1 µM
[11] = second compound 0.316 µM, first compound 3.16 µM
[12] = second compound 0.316 µM, first compound 10 µM
[13] = second compound 1 µM, first compound 0.0316 µM
[14] = second compound 1 µM, first compound 0.1 µM
[15] = second compound 1 µM, first compound 0.316 µM
[16] = second compound 1 µM, first compound 1 µM
[17] = second compound 1 µM, first compound 3.16 µM
[18] = second compound 1 µM, first compound 10 µM
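Note: spheroids exposed to agents for 7 days starting day 3 after seeding.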
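Throughout, for viability, T/C: percent of DMSO vehicle control viability with 100% = vehicle.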

In the case of `C=C(F)C(=O)N1CCN(c2nc(OCC3CCCN3C)nc3c2CCN(c2cccc4cccc(Cl)c24)C3)CC1CC#N` (configuration not stated) + CNC(C)C(=O)NC1CN(S(=O)(=O)c2cccc(S(=O)(=O)N3CCC4CCC(C(=O)NC(c5ccccc5)c5ccccc5)N4C(=O)C(NC(=O)C(C)NC)C3)c2)CCC2CCC(C(=O)NC(c3ccccc3)c3ccccc3)N2C1=O, the IC50 (second compound 0.00316 µM) is reported as 5510 nM, the IC50 (second compound 0.01 µM) is reported as 4850 nM and the IC50 (second compound 0.0316 µM) is reported as 4250 nM. The IC50 (second compound 0.1 µM) was 4110 nM, the IC50 (second compound 0.316 µM) was 3520 nM and the IC50 (second compound 1 µM) was 2560 nM. For the same compound, the viability, T/C (second compound 0.00316 µM, first compound 0.0316 µM) was 101%, the viability, T/C (second compound 0.00316 µM, first compound 0.1 µM) was 104% and the viability, T/C (second compound 0.00316 µM, first compound 0.316 µM) was 103%. For the same compound, the viability, T/C (second compound 0.00316 µM, first compound 1 µM) was 85.6%, the viability, T/C (second compound 0.00316 µM, first compound 3.16 µM) was 94.4% and the viability, T/C (second compound 0.00316 µM, first compound 10 µM) was 2.3%. For the same compound, the viability, T/C (second compound 0.01 µM, first compound 0.0316 µM) was 98.8%, the viability, T/C (second compound 0.01 µM, first compound 0.1 µM) was 100% and the viability, T/C (second compound 0.01 µM, first compound 0.316 µM) was 94.9%. The viability, T/C (second compound 0.01 µM, first compound 1 µM) was 101%, the viability, T/C (second compound 0.01 µM, first compound 3.16 µM) was 77.3% and the viability, T/C (second compound 0.01 µM, first compound 10 µM) was 3.86%. The viability, T/C (second compound 0.0316 µM, first compound 0.0316 µM) was 102%, the viability, T/C (second compound 0.0316 µM, first compound 0.1 µM) was 102% and the viability, T/C (second compound 0.0316 µM, first compound 0.316 µM) was 104%. It also gave a viability, T/C (second compound 0.0316 µM, first compound 1 µM) of 104%, a viability, T/C (second compound 0.0316 µM, first compound 3.16 µM) of 67.2% and a viability, T/C (second compound 0.0316 µM, first compound 10 µM) of 0.24%. It also gave a viability, T/C [1] of 96.1%, a viability, T/C [2] of 101% and a viability, T/C [3] of 92.2%. The viability, T/C [4] was 87.2%, the viability, T/C [5] was 64.3% and the viability, T/C [6] was 3.14%. The viability, T/C [7] was 95.4%, the viability, T/C [8] was 90.3% and the viability, T/C [9] was 83.4%. For the same compound, the viability, T/C [10] was 79%, the viability, T/C [11] was 56.3% and the viability, T/C [12] was 0.25%. The viability, T/C [13] was 84.5%, the viability, T/C [14] was 75.3% and the viability, T/C [15] was 82.5%. The viability, T/C [16] was 66.4%, the viability, T/C [17] was 46.3% and the viability, T/C [18] was 0.27%.
With `C#Cc1c(F)ccc2cc(O)cc(-c3ncc4c(N5CC6CCC(C5)N6)nc(OCC56CCCN5CC(F)C6)nc4c3F)c12` (configuration not stated) + Cc1c(S(C)(=O)=O)c(-c2cc(F)cc(N3CCN(c4ccc(NS(=O)(=O)c5ccc(NC(CCN6CCC(C(=O)OCCCP(=O)(O)O)CC6)CSc6ccccc6)c(S(=O)(=O)C(F)(F)F)c5)cc4)CC3)c2)c(-c2ccc(Cl)cc2)n1C(C)C the IC50 (second compound 0.1 µM) was 833 nM, the IC50 (second compound 0.316 µM) was 620 nM and the IC50 (second compound 1 µM) was 679 nM. For the same compound, the IC50 (second compound 3.16 µM) was 188 nM, the IC50 (second compound 10 µM) was 55.5 nM and the viability, T/C [1] was 78.3%. The viability, T/C [2] was 77.3%, the viability, T/C [3] was 61.7% and the viability, T/C [4] was 47%. For the same compound, the viability, T/C [5] was 46.3%, the viability, T/C [6] was 37.1% and the viability, T/C [7] was 79%. The viability, T/C [8] was 75.1%, the viability, T/C [9] was 57.5% and the viability, T/C [10] was 43%. For the same compound, the viability, T/C [11] was 40.9%, the viability, T/C [12] was 31.6% and the viability, T/C [13] was 72.6%. The viability, T/C [14] was 66.4%, the viability, T/C [15] was 55.1% and the viability, T/C [16] was 44.1%. For the same compound, the viability, T/C [17] was 41.9%, the viability, T/C [18] was 27.4% and the viability, T/C (second compound 3.16 µM, first compound 0.0316 µM) was 67.2%. For the same compound, the viability, T/C (second compound 3.16 µM, first compound 0.1 µM) was 55%, the viability, T/C (second compound 3.16 µM, first compound 0.316 µM) was 45.6% and the viability, T/C (second compound 3.16 µM, first compound 1 µM) was 34.6%. The viability, T/C (second compound 3.16 µM, first compound 3.16 µM) was 32.7%, the viability, T/C (second compound 3.16 µM, first compound 10 µM) was 22.5% and the viability, T/C (second compound 10 µM, first compound 0.0316 µM) was 56.7%. It also gave a viability, T/C (second compound 10 µM, first compound 0.1 µM) of 41.2%, a viability, T/C (second compound 10 µM, first compound 0.316 µM) of 36.5% and a viability, T/C (second compound 10 µM, first compound 1 µM) of 24.4%. For the same compound, the viability, T/C (second compound 10 µM, first compound 3.16 µM) was 19.3% and the viability, T/C (second compound 10 µM, first compound 10 µM) was 14.9%.
